# Results reported in PMC8387526, “Small peptide-based GLP-1R ligands: an approach to reduce the kidney uptake of radiolabeled GLP-1R-targeting agents?” (EJNMMI Radiopharmacy and Chemistry, 2021).
# Read-outs that look alike come from different tables or passages of the source. Square brackets hold non-standard residues; d marks the D form. Peptide text beside a SMILES is read from it. Bip(2'-Et-4'-OMe) = CCc1cc(OC)ccc1-c1ccc(C[C@H](N)C(=O)O)cc1; αMePhe(2-F) = C[C@](N)(Cc1ccccc1F)C(=O)O; hPhe = N[C@@H](CCc1ccccc1)C(=O)O; Aib = CC(C)(N)C(=O)O
# Experiments:
# [1] = set-up: method as in Gotthardt et al., 2007; settings: rats, pre-administration; ref Gotthardt et al., 2007; cited from earlier work
# human GLP-1 receptor [2] = biological target: T1, human GLP-1 receptor (Homo sapiens, UniProt P43220); set-up: Dr. Timothy Kieffer (University of British Columbia); method as in Mapelli et al., 2009; Haque et al., 2010a; settings: CHO cells stably overexpressing the human GLP-1 receptor; ref Mapelli et al., 2009; Haque et al., 2010a; read-out: EC50 (cAMP production); cited from earlier work
# T1 sequence (P43220 24-463): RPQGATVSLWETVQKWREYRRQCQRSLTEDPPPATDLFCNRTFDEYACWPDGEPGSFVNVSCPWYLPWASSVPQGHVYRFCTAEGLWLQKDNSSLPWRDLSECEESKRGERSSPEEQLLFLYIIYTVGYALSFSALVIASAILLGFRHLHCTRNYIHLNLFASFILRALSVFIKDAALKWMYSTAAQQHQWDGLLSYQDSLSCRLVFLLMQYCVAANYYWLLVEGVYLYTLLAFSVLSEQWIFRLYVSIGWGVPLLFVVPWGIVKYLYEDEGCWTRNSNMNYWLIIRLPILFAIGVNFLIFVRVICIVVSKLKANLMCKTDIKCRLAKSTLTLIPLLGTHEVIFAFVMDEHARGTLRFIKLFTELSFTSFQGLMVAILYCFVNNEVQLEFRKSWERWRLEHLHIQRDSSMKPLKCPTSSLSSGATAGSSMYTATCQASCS
# human GLP-1 receptor [3] = biological target: T1, human GLP-1 receptor; experiment: Competitive binding (IC50) on HEK293-hGLP-1R cells with radioligand [Nle^14, [^125I]Tyr(3-I)^40]exendin-4; set-up: Dr. Timothy Kieffer (University of British Columbia); host or cells: HEK293; settings: for IC50 ± SD (result in words): ligand range 10^-11 to 10^-5 M
# Method: Dr. Timothy Kieffer (University of British Columbia, Vancouver, Canada). Cells were cultivated in high glucose DMEM (25.0 mM D-glucose, 3.97 mM GlutaMAX; REF-number: 61965–026; Fisher Scientific GmbH, Schwerte, Germany) supplemented with 10% fetal bovine serum and 1 mM sodium pyruvate. Medium for stably transfected HEK293-hGLP-1R cells was constantly supplemented with 1 mg/mL Geneticin (G-418 Biochrom, Merck KgaA, Darmstadt, Germany) as selection antibiotic. The cell line was kept at 37 °C in a humidified 5% CO2 atmosphere. One day (24 ± 2 h) prior to all in vitro experiments, the cultivated HEK293-h-GLP-1R cells were harvested using a mixture of trypsin/ethylenediaminetetraacetic acid (0.05%/0.02%) in phosphate-buffered saline (PBS) (Gibco, Germany) and centrifuged at 1300 rpm (ca. 190×g) for 3 min at room temperature (Heraeus Megafuge 16, Thermo Fisher, Germany). After centrifugation, the supernatant was disposed and the cell pellet was resuspended in culture medium. Cells were counted with a Neubauer hemocytometer (Paul Marienfeld GmbH & Co. KG, Lauda-Königshofen, Germany) and seeded in 24-well plates. IC50 values were determined by transferring 1.50 × 10^5 cells/mL per well into 24-well plates.
# Detailed information on affinity experiments is provided in the SI. In brief, competitive binding studies were determined on HEK293-hGLP-1R cells (1.50 × 10^5 cells in 1 mL/well) after incubation at 4 °C for 2 hours, using [^125I]Tyr(3-I)^40–3 (0.41 nM/well) as reference radioligand (n = 3).
# Dr. Timothy J. Kieffer (University of British Columbia, Vancouver, Canada). Cells were cultivated in high glucose DMEM (25.0 mM D-glucose, 3.97 mM GlutaMAX; REF-number: 61965-026; Fisher Scientific GmbH, Schwerte, Germany) supplemented with 10% fetal bovine serum and 1 mM sodium pyruvate. Medium for stably transfected HEK293-hGLP-1R cells was constantly supplemented with 1 mg/mL Geneticin (G-418 Biochrom, Merck KgaA, Darmstadt, Germany) as selection antibiotic. The cell line was kept at 37 °C in a humidified 5% CO2 atmosphere. One day (24 ± 2 h) prior to all in vitro experiments, the cultivated cells were harvested using a mixture of trypsin/ethylenediaminetetraacetic acid (0.05%/0.02%) in phosphate-buffered saline (PBS) (Merck KgaA, Darmstadt, Germany) and centrifuged at 1300 rpm (ca. 190 × g) for 3 min at room temperature (Heraeus Megafuge 16, Thermo Fisher Scientific, Darmstadt, Germany). After centrifugation, the supernatant was disposed and the cell pellet was resuspended in culture medium. Cells were counted with a Neubauer hemocytometer (Paul Marienfeld GmbH & Co. KG, Lauda-Königshofen, Germany) and seeded in 24-well plates (Greiner Bio-One, Kremsmünster, Austria). IC50 values were determined by transferring 1.50 × 10^5 cells/mL per well into 24-well plates (Greiner Bio-One, Kremsmünster, Austria).
# The culture medium was removed and the cells were washed with 500 µL of Hank’s balanced salt solution (HBSS) (Merck KGaA, Darmstadt, Germany), containing 1% bovine serum albumin (BSA) (Merck KGaA, Darmstadt, Germany). Afterwards, 200 µL of HBSS (1% BSA) were added to each well and equilibrated on ice (4 °C) for 15 min. 25 µL/well of either HBSS (1% BSA) (= control) or of solutions, containing the respective unlabeled ligand in increasing concentrations (10^-10 - 10^-4 M in HBSS) were added, followed by the addition of 25 µL of [Nle^14, [^125I]Tyr(3-I)^40]exendin-4 in HBSS (1% BSA) to each well. Experiments were carried out in triplicates for each concentration. The final concentrations of unlabeled ligand ranged from 10^-11 - 10^-5 M and the final radioligand concentration was 0.41 nM in all binding assays. The cells were incubated for two hours at 4 °C. Incubation was terminated by removal of the incubation medium. The cells were washed with 250 µL of HBSS (1% BSA) and the wash medium was combined with the respective supernatant. This fraction represents the amount of free radioligand. The cells were lysed by addition of 250 µL of 1 M aqueous NaOH. […]
# human GLP-1 receptor [4] = biological target: T1, human GLP-1 receptor; experiment: as above; set-up: Dr. Timothy Kieffer (University of British Columbia); host or cells: HEK293; settings: w/o BSA, HBSS
# [5] = Stability study of the reference radioligand stock solution (RCP by radio-RP-HPLC); assay type: physicochemical
# Method: ^125I-labeling. The radioiodinated reference ligand [Nle^14, [^125I]Tyr(3-I)^40]exendin-4 ([^125I]Tyr(3-I)^40–3) was prepared via the Iodogen method (Salacinski et al., [1981]), with some minor modifications. […] The solution was transferred to a vial, which has been precoated with 15.0 μg Iodogen (34.7 nmol, 139 eq.). Afterwards, 15 ± 5 MBq [^125I] NaI (74 MBq/nmol, 3.7 GBq/mL in 40 mM NaOH, Hartmann Analytic, Braunschweig, Germany) (5.00 μL, 250 pmol, 1.00 eq.) were added, the reaction solution was incubated for 15 min at r.t. and 150 μL thereof were purified by radio-RP-HPLC (0% B (2 min) ➔ 0–37.5% B (3 min) ➔ 37.5% B (35 min) ➔ 38% B (10 min), Method A*, 1 mL/min) to afford 3.15 MBq (48.8% RCY, > 99% RCP) of product [^125I]Tyr(3-I)^40–3. The radioligand was stored in the HPLC solvent (stock solution) at − 80 °C until further use. The radioligand stock solution was used to a maximum of 14 days to ensure a RCP of > 92% (Table 1 in the Additional file 1) and replaced by freshly prepared radioligand afterwards. Prior to the in vitro experiments, the radioligand was dissolved in HBSS (with or w/o 1% BSA) to achieve a final concentration of 0.41 nM in the respective assays. *Method A: solvent A = water + 0.1% TFA, solvent B = acetonitrile + 2% water + 0.1% TFA.
# Table 1: Stability study of reference radioligand [^125I]Tyr(3-I)^40]-3, (n = 1).
compound,measurement,setting,value
NCCCC[C@H](N)C(=O)O [L-lysine],decrease of kidney uptake of [^111In]In-DTPA-exendin-4,[1],did not show any effect
"CCc1cc(OC)ccc1-c1ccc(C[C@H](NC(=O)[C@H](CC(=O)O)NC(=O)[C@H](CO)NC(=O)[C@@H](NC(=O)[C@](C)(Cc2ccccc2F)NC(=O)[C@@H](NC(=O)CNC(=O)[C@H](CCC(=O)O)NC(=O)C(C)(C)NC(=O)[C@@H](N)Cc2c[nH]cn2)[C@@H](C)O)[C@@H](C)O)C(=O)N[C@@H](CCc2ccccc2)C(N)=O)cc1 [Peptide 1, H-L-His-Aib-L-Glu-Gly-L-Thr-L-(α-Me)Phe(2-F)-L-Thr-L-Ser-L-Asp-L-(2’-Et, 4’-OMe)BIP-L-homoPhe-NH2, reference compound] (H-H[Aib]EGT[αMePhe(2-F)]TSD[Bip(2'-Et-4'-OMe)][hPhe]-NH2)",EC50,human GLP-1 receptor [2],0.031 nM
same,IC50,"human GLP-1 receptor [3]; w/ BSA (1% BSA), HEK293-hGLP-1R cells, 4 °C, 2 h, 0.41 nM radioligand, read-out: IC50 ± SD",669 ± 242 nM
"C[C@@H](O)[C@H](NC(=O)CNC(=O)[C@H](CCC(=O)O)NC(=O)C(C)(C)NC(=O)[C@@H](N)Cc1c[nH]cn1)C(=O)N[C@@](C)(Cc1ccccc1)C(=O)N[C@H](C(=O)N[C@@H](CO)C(=O)N[C@@H](CC(=O)O)C(=O)N[C@@H](CNC(=O)c1ccc([Si](F)(C(C)(C)C)C(C)(C)C)cc1)C(=O)N[C@@H](CCc1ccccc1)C(N)=O)[C@@H](C)O [Peptide 4, H-L-His-Aib-L-Glu-Gly-L-Thr-L-(α-Me)Phe-L-Thr-L-Ser-L-Asp-L-Dap(SiFA)-L-homoPhe-NH2]",IC50,human GLP-1 receptor [3],2400 nM
same,IC50 ± SD (result in words),human GLP-1 receptor [3]; w/ BSA (1% BSA),no detectable affinity
same,maximal radioligand displacement (of maximal radioligand binding),human GLP-1 receptor [4],61–69%
"C[C@@H](O)[C@H](NC(=O)CNC(=O)[C@H](CCC(=O)O)NC(=O)C(C)(C)NC(=O)[C@@H](N)Cc1c[nH]cn1)C(=O)N[C@@](C)(Cc1ccccc1F)C(=O)N[C@H](C(=O)N[C@@H](CO)C(=O)N[C@@H](CC(=O)O)C(=O)N[C@@H](CNC(=O)c1ccc([Si](F)(C(C)(C)C)C(C)(C)C)cc1)C(=O)N[C@@H](CCc1ccccc1)C(N)=O)[C@@H](C)O [Peptide 5, H-L-His-Aib-L-Glu-Gly-L-Thr-L-(α-Me)Phe(2-F)-L-Thr-L-Ser-L-Asp-L-Dap(SiFA)-L-homoPhe-NH2]",IC50,human GLP-1 receptor [3],189 ± 35 nM
same,IC50 ± SD (result in words),human GLP-1 receptor [3]; w/ BSA (1% BSA),no detectable affinity
same,maximal radioligand displacement (of maximal radioligand binding),human GLP-1 receptor [4],61–69%
"[Nle^14, [^125I]Tyr(3-I)^40]exendin-4 [[^125I]Tyr(3-I)^40-3]",RCP,"[5]; 0 days after radioiodination, stock in HPLC solvent at −80 °C, n = 4",≥ 95% (n = 4)
same,RCP,"[5]; 4 days after radioiodination, stock in HPLC solvent at −80 °C",95%
same,RCP,"[5]; 9 days after radioiodination, stock in HPLC solvent at −80 °C",95%
same,RCP,"[5]; 16 days after radioiodination, stock in HPLC solvent at −80 °C",92%
same,RCP,"[5]; 20 days after radioiodination, stock in HPLC solvent at −80 °C",82%
same,RCP,"[5]; 24 days after radioiodination, stock in HPLC solvent at −80 °C",82%
same,RCP,"[5]; 29 days after radioiodination, stock in HPLC solvent at −80 °C",78%
same,RCP,"[5]; 36 days after radioiodination, stock in HPLC solvent at −80 °C",78%
same,RCP,"[5]; stock solution used to a maximum of 14 days, −80 °C",> 92%
